From patent US20220009920A1 (GB005, Inc., priority 2020, published 2022)

Legend:
Experiment in all cases: Large panel kinase profiling
Format in all cases: biochemical
Settings in all cases: 1 μM test article, 1 mM ATP
SRC = biological target: T1, SRC (Homo sapiens, UniProt P12931)
T1 construct: AssayQuant Technologies, Inc. (contract assay)
Procedure, shortened: (§1)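 Fluorescence intensity (Ex 360 nm, Em 485 nm) was monitored continuously, once per minute, in PhosphoSens CSox-Sensor kinase reactions held at 30° C. Compound was present at 1 μM and ATP at 1 mM.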

PKN3 = PKN3 (Homo sapiens, UniProt Q6P5Z2)
Procedure, shortened: as §1

GRK3 = biological target: T2, GRK3 (Homo sapiens, UniProt P35626)
T2 construct: AssayQuant Technologies, Inc. (service provider)
T2 sequence (P35626 1-688): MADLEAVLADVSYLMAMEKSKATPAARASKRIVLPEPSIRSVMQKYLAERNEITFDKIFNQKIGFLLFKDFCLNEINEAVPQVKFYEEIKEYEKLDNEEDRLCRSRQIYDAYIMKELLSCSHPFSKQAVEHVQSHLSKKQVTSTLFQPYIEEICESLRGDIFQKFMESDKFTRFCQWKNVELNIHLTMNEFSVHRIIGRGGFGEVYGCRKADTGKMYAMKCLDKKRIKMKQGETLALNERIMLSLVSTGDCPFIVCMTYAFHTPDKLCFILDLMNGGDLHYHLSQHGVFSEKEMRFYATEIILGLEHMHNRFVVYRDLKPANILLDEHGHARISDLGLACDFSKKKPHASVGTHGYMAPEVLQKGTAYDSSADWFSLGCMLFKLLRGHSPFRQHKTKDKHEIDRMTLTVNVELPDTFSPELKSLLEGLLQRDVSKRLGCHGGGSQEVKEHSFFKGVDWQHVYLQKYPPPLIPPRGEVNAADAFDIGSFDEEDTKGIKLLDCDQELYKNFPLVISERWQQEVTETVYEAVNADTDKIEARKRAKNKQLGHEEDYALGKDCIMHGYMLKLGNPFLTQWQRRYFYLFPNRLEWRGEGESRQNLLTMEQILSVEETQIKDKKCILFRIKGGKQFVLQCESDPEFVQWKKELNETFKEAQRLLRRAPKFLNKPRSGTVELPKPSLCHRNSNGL
Procedure, shortened: as §1

TEC = biological target: T3, TEC (Homo sapiens, UniProt P42680)
T3 construct: AssayQuant Technologies, Inc. (contract laboratory that ran the panel)
T3 sequence (P42680 1-631): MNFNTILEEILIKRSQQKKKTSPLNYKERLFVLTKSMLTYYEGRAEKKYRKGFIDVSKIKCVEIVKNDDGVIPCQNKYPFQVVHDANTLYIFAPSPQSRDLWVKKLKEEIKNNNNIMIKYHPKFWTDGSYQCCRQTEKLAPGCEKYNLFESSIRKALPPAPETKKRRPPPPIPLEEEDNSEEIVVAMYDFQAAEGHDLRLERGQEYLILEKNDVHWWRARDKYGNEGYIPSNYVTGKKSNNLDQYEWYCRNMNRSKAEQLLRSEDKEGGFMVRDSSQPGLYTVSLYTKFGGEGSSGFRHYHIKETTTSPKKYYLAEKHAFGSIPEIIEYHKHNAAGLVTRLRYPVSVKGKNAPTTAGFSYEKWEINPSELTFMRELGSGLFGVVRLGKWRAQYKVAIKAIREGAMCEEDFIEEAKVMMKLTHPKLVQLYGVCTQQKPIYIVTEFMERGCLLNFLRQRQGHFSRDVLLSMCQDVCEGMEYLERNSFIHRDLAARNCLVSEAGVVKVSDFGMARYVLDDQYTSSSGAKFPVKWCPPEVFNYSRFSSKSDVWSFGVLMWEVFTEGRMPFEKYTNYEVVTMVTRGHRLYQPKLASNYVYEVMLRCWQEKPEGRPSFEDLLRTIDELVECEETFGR
Procedure, shortened: as §1

PAK3 = PAK3 (Homo sapiens, UniProt O75914)
Sequence of PAK3 (O75914 whole entry, species assumed): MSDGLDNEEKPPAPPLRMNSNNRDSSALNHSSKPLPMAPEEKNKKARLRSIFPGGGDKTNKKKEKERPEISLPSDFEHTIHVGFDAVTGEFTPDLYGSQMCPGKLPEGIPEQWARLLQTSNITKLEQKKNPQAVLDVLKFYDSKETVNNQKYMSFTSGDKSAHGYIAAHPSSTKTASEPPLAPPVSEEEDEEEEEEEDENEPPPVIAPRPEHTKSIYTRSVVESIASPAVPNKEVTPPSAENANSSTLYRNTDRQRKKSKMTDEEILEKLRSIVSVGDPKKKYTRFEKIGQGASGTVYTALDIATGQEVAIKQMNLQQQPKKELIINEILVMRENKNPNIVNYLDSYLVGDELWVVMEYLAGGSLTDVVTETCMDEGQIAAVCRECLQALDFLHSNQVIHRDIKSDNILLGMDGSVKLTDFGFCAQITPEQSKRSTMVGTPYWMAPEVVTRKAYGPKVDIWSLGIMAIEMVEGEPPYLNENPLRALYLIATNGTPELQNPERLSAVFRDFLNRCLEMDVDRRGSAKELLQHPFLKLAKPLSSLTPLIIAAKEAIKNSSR
Procedure, shortened: as §1

ERBB2/HER2 = ERBB2/HER2 (Homo sapiens, UniProt P04626)
Sequence of ERBB2/HER2 (P04626 23-1255): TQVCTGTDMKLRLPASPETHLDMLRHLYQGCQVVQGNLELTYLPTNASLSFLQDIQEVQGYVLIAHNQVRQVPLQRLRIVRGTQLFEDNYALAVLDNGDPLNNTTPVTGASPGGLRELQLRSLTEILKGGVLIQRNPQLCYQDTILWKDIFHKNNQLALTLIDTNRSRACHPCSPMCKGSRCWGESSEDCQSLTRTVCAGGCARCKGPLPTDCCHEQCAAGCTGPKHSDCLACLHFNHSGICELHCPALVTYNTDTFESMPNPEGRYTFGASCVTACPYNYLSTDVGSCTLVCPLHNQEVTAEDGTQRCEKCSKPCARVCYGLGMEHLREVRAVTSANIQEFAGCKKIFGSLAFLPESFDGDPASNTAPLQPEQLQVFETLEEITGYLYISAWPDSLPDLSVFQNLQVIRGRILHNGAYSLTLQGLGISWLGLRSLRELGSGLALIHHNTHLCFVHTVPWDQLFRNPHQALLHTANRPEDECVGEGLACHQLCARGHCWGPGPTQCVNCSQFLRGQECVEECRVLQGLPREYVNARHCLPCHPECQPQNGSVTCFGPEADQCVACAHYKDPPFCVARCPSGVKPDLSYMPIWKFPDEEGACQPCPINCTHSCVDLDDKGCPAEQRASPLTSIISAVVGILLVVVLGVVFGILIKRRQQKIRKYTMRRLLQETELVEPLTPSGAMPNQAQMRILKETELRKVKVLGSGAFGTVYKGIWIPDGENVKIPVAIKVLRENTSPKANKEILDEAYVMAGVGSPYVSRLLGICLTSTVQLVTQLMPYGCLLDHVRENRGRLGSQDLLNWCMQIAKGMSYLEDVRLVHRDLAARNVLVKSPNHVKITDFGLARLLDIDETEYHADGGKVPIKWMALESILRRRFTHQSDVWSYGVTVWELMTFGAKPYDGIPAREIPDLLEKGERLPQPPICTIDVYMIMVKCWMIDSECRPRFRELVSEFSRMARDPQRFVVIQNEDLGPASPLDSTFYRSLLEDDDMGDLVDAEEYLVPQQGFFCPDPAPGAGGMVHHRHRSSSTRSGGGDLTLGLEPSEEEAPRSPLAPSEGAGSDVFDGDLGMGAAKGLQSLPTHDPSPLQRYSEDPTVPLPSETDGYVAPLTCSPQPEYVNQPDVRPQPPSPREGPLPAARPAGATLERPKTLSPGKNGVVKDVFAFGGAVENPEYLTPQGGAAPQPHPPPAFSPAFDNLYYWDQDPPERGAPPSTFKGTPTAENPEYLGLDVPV
Procedure, shortened: as §1

DYRK3 = biological target: T4, DYRK3 (Homo sapiens, UniProt O43781)
T4 construct: AssayQuant Technologies, Inc. (service laboratory)
T4 sequence (O43781 1-588): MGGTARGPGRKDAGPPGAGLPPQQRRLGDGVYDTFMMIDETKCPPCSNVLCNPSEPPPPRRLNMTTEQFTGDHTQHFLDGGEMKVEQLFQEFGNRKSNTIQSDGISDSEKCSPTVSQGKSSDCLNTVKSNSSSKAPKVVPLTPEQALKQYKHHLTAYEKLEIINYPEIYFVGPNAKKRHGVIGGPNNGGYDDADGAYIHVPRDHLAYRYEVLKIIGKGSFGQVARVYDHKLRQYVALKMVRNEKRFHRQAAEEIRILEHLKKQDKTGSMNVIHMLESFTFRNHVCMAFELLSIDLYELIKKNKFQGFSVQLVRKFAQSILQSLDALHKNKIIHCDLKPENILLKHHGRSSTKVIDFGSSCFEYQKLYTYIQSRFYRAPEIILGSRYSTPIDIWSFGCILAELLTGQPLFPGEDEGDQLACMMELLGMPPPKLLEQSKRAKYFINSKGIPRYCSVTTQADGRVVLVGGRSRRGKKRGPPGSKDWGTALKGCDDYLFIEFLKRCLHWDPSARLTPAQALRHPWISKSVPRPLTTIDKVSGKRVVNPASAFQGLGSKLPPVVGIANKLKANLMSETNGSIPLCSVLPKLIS
Procedure, shortened: as §1

MARK1 = biological target: T5, MARK1 (Homo sapiens, UniProt Q9P0L2)
T5 construct: AssayQuant Technologies, Inc. (assay service)
T5 sequence (Q9P0L2 whole entry, species assumed): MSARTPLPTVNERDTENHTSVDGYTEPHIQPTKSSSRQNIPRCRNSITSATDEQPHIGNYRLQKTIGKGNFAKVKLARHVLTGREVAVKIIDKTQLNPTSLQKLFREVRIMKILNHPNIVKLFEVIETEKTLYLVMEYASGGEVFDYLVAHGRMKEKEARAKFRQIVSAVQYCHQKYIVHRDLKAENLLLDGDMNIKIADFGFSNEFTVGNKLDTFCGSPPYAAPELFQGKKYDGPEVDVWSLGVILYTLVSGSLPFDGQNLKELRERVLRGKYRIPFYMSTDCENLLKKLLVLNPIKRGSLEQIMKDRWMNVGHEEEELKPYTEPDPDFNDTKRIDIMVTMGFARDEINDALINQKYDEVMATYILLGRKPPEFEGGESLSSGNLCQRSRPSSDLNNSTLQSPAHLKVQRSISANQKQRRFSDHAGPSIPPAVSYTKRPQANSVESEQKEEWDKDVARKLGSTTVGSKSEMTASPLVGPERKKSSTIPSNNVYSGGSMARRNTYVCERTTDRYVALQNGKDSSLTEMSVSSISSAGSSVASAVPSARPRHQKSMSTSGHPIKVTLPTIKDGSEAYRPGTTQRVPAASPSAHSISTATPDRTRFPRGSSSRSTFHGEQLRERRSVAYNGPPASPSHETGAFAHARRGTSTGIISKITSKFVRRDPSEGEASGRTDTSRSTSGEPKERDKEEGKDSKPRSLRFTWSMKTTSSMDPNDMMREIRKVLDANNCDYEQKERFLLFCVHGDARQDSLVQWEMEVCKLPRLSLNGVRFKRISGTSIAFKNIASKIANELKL
Procedure, shortened: as §1

KDR = KDR (Homo sapiens, UniProt P35968)
Sequence of KDR (P35968 20-1356, species assumed): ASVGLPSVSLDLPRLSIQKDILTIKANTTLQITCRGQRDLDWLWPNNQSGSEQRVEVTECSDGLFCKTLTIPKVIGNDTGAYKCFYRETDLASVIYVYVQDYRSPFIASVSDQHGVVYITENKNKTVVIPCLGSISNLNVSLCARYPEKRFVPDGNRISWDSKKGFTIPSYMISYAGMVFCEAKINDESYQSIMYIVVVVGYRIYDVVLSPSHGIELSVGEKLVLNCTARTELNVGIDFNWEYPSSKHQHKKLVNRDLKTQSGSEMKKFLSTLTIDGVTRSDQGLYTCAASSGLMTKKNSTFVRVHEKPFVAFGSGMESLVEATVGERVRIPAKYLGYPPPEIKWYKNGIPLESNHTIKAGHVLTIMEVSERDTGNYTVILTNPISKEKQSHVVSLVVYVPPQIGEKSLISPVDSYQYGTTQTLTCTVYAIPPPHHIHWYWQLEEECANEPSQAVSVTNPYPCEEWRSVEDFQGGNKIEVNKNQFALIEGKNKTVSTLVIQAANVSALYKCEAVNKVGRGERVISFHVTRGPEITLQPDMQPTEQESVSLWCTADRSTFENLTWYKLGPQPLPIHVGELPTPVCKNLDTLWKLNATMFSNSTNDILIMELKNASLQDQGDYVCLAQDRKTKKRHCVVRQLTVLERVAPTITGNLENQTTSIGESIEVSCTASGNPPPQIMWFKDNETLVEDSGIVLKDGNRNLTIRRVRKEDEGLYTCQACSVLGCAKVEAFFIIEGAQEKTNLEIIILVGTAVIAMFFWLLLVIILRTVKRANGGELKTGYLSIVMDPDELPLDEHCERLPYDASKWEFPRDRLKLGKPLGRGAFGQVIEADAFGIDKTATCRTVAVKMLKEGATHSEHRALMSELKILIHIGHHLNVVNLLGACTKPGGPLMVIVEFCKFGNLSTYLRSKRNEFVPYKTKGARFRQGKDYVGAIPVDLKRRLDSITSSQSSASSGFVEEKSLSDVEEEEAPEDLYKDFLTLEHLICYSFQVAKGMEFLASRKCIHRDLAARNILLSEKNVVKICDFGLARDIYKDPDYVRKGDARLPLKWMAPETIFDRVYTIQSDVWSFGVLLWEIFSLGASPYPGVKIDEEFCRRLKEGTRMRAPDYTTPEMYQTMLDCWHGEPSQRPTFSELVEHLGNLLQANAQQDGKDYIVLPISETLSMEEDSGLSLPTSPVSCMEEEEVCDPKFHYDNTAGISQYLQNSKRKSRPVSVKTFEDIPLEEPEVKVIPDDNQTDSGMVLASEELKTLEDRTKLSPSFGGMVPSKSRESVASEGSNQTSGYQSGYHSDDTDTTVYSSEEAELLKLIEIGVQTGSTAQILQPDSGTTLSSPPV
Procedure, shortened: as §1

MST1R/RON = biological target: T6, MST1R/RON (Homo sapiens, UniProt Q04912)
T6 construct: AssayQuant Technologies, Inc. (assay service)
Procedure, shortened: as §1

T1 sequence (P12931 whole entry, species assumed): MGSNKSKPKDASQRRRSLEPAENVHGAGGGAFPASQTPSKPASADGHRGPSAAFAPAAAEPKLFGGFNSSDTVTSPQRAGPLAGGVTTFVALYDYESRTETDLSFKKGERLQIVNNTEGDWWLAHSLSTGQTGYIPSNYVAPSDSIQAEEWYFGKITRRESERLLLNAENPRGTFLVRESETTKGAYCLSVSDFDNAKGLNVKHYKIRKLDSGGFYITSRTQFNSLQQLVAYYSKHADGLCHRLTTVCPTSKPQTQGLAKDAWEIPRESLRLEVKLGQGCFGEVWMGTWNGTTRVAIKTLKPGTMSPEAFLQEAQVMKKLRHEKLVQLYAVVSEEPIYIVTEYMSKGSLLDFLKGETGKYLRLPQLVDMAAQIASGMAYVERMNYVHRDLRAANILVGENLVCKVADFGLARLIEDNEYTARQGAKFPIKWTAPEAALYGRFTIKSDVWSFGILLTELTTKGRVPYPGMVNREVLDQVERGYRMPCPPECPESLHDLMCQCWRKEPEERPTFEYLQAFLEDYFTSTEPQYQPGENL

Compound	inhibition at 1 µM (SRC) [%]	inhibition at 1 µM (PKN3) [%]	inhibition at 1 µM (GRK3) [%]	inhibition at 1 µM (TEC) [%]	inhibition at 1 µM (PAK3) [%]	inhibition at 1 µM (ERBB2/HER2) [%]	inhibition at 1 µM (DYRK3) [%]	inhibition at 1 µM (MARK1) [%]	inhibition at 1 µM (KDR) [%]	inhibition at 1 µM (MST1R/RON) [%]
C=CC(=O)N1CCCC(c2c(F)cc(C(N)=O)c3[nH]c4c(c23)CCCCC4)C1 (single isomer, unassigned) [Compound 5-6]	-28.3	5.7	-25.6	80.3	5.4	-2.2	2.8	15.4	10.3	-2.4
C=CC(=O)N1CCC[C@@H](c2c(F)cc(C(N)=O)c3[nH]c4c(c23)CC2(CC4)CC2)C1 [Compound 6-2, (S)-5-(1-acryloylpiperidin-3-yl)-6-fluoro-1,2,4,9-tetrahydrospiro[carbazole-3,1′-cyclopropane]-8-carboxamide]	-7	-9.4	-48.3	84.5	10.2	11.9	-4.9	-63.9	31.6	-0.6
C=CC(=O)N1CCC[C@@H](c2c(F)cc(C(N)=O)c3[nH]c4c(c23)CCC4)C1 [Compound 10-2, (S)-8-(1-acryloylpiperidin-3-yl)-7-fluoro-1,2,3,4-tetrahydrocyclo-penta[b]indole-5-carboxamide]	-1.8	3.5	-42.7	76.1	21.7	14.5	-3.3	-12.9	32.7	-2.5
